This assay concerns corpus cavernosum. The assay is described as follows: Intracorporal (cavernosal) pressure in anesthetized male dogs after topical papaverine gel with or without ultrasound. Type of assay: in vivo, dog. An excerpt: The invention has reduced to practice and the principles of the invention have been proven by animal experiments. In these experiments, male dogs, one year old, were anesthetized and a midline abdominal incision was made from the xyphoid process down to the symphisis pubis. Proceeding slightly lateral to the left side of the penis, the corpus cavernosum was exposed. Two butterfly needles were placed into one of the corpus cavernosum, one proximally and one distally. The proximal needle was used for intracorporal pressure recordings, while saline was infused through the distal needle. Controlled intracorporal blood pressure (without applying any drugs) was monitored and recorded while saline was perfused at a rate of 1.7 ml/min. Nude mice skin was used to cover the exposed corpora by stitching it to the dog's incised skin. A gel containing 500 mg papaverine (in a base of polyethylene glycol, methyl paraben, butyl paraben, and butylated hydroxytoluene) was applied on the surface of the nude mice skin followed by the application of an ultrasound probe of 1 MHz, pulse mode 30%, at a power level of 2 w/cm^2, for 20 min. In the control experiments, papaverine was applied topically without any ultrasound application and the manometric pressure was monitored. The resulting manometric pressure was compared to the control pressure by measuring the time needed to reach the peak pressure and the time needed for the cavernosal pressure to decline to baseline.
Perfusion of the corpora with saline (with no ultrasound or papaverine application) was performed for 15 sec at a rate of 1.7 ml/min. creating a pressure ranging from 150-220 cm. H2O. The time needed for this pressure to drop to baseline (0-5) was 30 sec. Perfusion of the corpora with saline after applying ultrasound and papaverine reached the same pressure peak in only 5 sec. Moreover, the pressure declined to baseline in 1.5 minutes.

The mark [1] stands for this setting: papaverine gel plus ultrasound versus baseline (saline only).

Entries after “also recorded” stand apart in the source; their conditions may differ.

For the compound `COc1ccc(Cc2nccc3cc(OC)c(OC)cc23)cc1OC` [papaverine], the “time needed to reach the peak pressure” value (gel with 500 mg papaverine on nude mice skin over corpora, ultrasound 1 MHz, pulse mode 30%, 2 w/cm^2, 20 min, saline perfusion 1.7 ml/min) worked out at 5 s. In addition, the “time needed for the cavernosal pressure to decline to baseline” value (gel with 500 mg papaverine plus ultrasound 1 MHz, pulse mode 30%, 2 w/cm^2, 20 min, saline perfusion 1.7 ml/min) is 1.5 min. The “manometric pressure result compared to saline-only control” value (papaverine gel on the skin for 20 min, no ultrasound) is given as “same results as in the control experiments; also recorded: no greater pressure readings than the no-drug control”. For the same compound, the “manometric pressure result with ultrasound” value (papaverine gel plus ultrasound treatment) is listed as “rise in pressure which was consistent with erection”. Besides, under setting [1], the “improvement in the period of time established as a baseline for the establishment of erection” value was found to be 300% and the “persistence of effects relative to the baseline erection parameters” value is recorded as 500%.
